How the values were obtained:
[1] = tested on: calcium metabolism; assay: metabolic study of patients receiving gallium nitrate (calcium homeostasis); type: in vivo
Source text: As with most anticancer drugs, gallium can potentially cause serious toxicity. The most serious side-effect being kidney damage. […] Furthermore, the anti bone-resorptive effects of gallium nitrate are achieved with less than 25-50% of the anticancer dose. Thus the method should retain safety and efficacy for prolonged periods of time.
Experimental Results: Studies of calcium homeostasis require an assessment of multiple factors including dietary intake, excretion of calcium into urine and stool, and analysis of calcium mobilization from body stores (chiefly bone). Four patients who participated in a careful study of the effects of gallium nitrate upon calcium metabolism were thus assessed. Patients were hospitalized and received a diet of defined calcium, sodium, and fluid intake. Measurements of calcium excretion into urine and stool (along with multiple other laboratory tests) were made daily during a 6-day baseline period and during a subsequent treatment period using gallium nitrate. The drug was administered as a continuous infusion at a dose of 300 mg/sq m/day for durations ranging from 4-7 days.

[2] = resorption of devitalized bone particles from treated rats; conditions: particles from treated rats vs controls
Source text: Devitalized bone particles (i.e. bones containing only mineral and matrix without any cellular component) were studied.

[3] = tested on: bone turnover; assay: bone turnover in a patient with multiple myeloma and extensive bone destruction; type: in vivo; conditions: 200 mg/sq m/d×7 d infusion; for urine OH--Proline: previous 95.4; for urine Calcium: previous 618; for urine Phosphorus: previous 1630; for Urine Volume: previous 3640
Experimental: Summary: Patients with bone metastasis suffer progressive erosion of bone which causes pain, immobilization and fractures. Clinically, bone metastases are evaluated by sequential x-rays over a period of months to years. Other measures have recently been employed to measure bone turnover in patients with both cancer and non-cancerous bone resorption. In general, increased bone turnover is associated with increased loss of calcium into the urine and with increased excretion of hydroxyproline ([…]). Measurements of these parameters have been used to assess whether a new drug affects bone resorption (Siris, E. S. et al, New Engl J Med 302:310, 1980). We recently measured these parameters in a patient with multiple myeloma and extensive bone destruction who received gallium nitrate (200 mg/sq m/d×7 d by infusion).

[4] = 4 patients, continuous infusion 300 mg/sq m/day, 4-7 days

O=[N+]([O-])[O-].O=[N+]([O-])[O-].O=[N+]([O-])[O-].[Ga+3] [gallium nitrate]
calcium excretion relative to baseline [1, 4]: no significant increase in calcium excretion | total serum calcium concentration [1, 4]: reduced by the gallium infusion | dose for anti bone-resorptive effects as share of the anticancer dose ([1]; of the anticancer dose): 25-50% | urinary calcium excretion ([1]; patients receiving gallium nitrate): decreased urinary calcium excretion | calcium balance ([1]; patients while receiving the drug): remained in positive calcium balance | susceptibility of devitalized bone particles to resorption [2]: significantly less susceptible to resorption than controls | urine OH--Proline ([3]; day 8): 19.0 mg/24 h | urine Calcium ([3]; day 8): 97 mg/24 h | urine Phosphorus ([3]; day 8): 419 mg/24 h | Urine Volume ([3]; day 8): 3225 ml/24 h | amount of calcium and hydroxyproline excretion ([3]; myeloma patient): marked decrease | bone pain ([3]; myeloma patient): substantial decrease in bone pain | effect upon the underlying disease ([3]; myeloma patient): no effect upon the underlying disease | requirement for narcotics ([3]; myeloma patient): reduced requirement for narcotics | urine OH--Proline ([3]; treatment day 1): 76.0 mg/24 h | urine Calcium ([3]; treatment day 1): 502 mg/24 h | urine Phosphorus ([3]; treatment day 1): 567 mg/24 h | Urine Volume ([3]; treatment day 1): 4365 ml/24 h | urine OH--Proline ([3]; treatment day 4): 23.9 mg/24 h | urine Calcium ([3]; treatment day 4): 239 mg/24 h | urine Phosphorus ([3]; treatment day 4): 607 mg/24 h | Urine Volume ([3]; treatment day 4): 3620 ml/24 h

From US4529593A, “Use of gallium salts to treat disorders of calcium homeostasis” (Sloan-Kettering Institute for Cancer Research, priority 1984, dated 1985)
